{
  "source": "paper PMC7229206",
  "about": "“Split Intein-Mediated Protein Ligation for detecting protein-protein interactions and their inhibition” (Nature Communications, 2020)",
  "molecular_target": "T1, EGFR (Homo sapiens, UniProt P00533)",
  "T1 construct": "EGFR-IN; with SHC1",
  "T1 sequence (P00533 25-1210)": "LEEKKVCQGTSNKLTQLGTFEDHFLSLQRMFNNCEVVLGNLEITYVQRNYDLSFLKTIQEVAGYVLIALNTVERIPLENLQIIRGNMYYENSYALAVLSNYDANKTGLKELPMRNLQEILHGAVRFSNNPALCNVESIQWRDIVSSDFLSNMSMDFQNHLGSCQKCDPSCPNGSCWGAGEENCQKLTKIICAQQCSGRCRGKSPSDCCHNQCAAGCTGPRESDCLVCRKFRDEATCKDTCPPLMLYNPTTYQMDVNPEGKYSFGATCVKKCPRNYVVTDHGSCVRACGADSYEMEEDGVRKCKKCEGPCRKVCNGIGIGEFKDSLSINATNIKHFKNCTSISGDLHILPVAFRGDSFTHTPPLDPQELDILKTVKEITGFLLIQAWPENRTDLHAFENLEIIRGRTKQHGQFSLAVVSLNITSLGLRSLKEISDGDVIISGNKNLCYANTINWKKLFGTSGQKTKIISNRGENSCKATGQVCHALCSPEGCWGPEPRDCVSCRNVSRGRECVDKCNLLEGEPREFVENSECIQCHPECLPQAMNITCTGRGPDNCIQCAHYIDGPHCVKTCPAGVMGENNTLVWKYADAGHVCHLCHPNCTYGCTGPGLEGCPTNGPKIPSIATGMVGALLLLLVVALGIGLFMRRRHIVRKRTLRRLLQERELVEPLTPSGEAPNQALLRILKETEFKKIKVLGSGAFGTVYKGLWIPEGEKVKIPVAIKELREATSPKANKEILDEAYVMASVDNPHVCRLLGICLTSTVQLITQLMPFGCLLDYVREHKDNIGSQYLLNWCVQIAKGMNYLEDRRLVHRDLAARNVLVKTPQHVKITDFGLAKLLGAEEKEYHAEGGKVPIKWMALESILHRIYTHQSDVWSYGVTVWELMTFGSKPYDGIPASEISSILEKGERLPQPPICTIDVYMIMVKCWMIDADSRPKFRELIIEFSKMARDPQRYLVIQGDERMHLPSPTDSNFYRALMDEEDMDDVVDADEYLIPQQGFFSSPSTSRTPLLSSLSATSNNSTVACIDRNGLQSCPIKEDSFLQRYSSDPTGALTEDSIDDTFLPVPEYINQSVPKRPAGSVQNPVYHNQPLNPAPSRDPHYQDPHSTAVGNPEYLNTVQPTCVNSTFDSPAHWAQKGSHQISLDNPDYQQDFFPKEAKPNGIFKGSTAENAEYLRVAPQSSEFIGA",
  "T1 sequence (P29353 whole entry, further chain, canonical isoform)": "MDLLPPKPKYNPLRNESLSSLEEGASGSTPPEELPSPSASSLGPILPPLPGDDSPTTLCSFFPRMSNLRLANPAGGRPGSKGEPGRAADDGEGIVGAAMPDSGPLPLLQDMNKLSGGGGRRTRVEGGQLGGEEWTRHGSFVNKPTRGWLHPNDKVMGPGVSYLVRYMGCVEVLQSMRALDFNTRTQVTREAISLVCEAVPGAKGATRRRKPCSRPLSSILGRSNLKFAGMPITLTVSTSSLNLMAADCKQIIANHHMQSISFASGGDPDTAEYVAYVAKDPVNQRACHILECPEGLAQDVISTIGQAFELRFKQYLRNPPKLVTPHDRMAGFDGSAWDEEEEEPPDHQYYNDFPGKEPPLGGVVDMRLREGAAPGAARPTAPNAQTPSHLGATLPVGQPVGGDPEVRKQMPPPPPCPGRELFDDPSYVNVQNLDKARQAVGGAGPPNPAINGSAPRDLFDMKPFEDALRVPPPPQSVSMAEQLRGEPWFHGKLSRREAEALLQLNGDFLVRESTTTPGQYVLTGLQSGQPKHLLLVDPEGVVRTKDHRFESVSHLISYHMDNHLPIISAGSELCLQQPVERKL",
  "assay": "SIMPL western blot of EGFR/SHC1 interaction in cells (indirect readout of EGFR kinase activity)",
  "type": "cell-based",
  "data": [
    {"smiles": "COc1cc2ncnc(Nc3cccc(Cl)c3)c2cc1OC", "note": "[AG1478]", "values": [
      {"measurement": "SIMPL western blot of EGFR/SHC1 interaction in cells (indirect readout of EGFR k)", "value": "The spliced EGFR-SHC1 band observed by western blot diminished with increasing AG1478 concentration."}
    ]}
  ]
}
